Results published in US6914045B2, “Glycopeptide antibiotics” (Wyeth Holdings Corporation, priority 2001, dated 2005).
In brackets after ≈: the same amount, converted by molar mass. Values belong to the compound of their own block, whether it stands above or below them.

Legend:
Assay in all cases: in vitro antibacterial evaluation, MIC by broth dilution
Assay type in all cases: cell-based
Staphylococcus sp. = details: broth dilution, 18 hours at 35° C.
Outline: (§1)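 Inoculum 5×10^5 CFU/mL; concentrations 64 to 0.06 μg/mL; MIC defined as lowest inhibitory level. Conducted by broth dilution under NCCLS guidelines.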

Escherichia coli = details: 18 hours at 35° C.
Outline: as §1

Enterococcus sp. = details: broth dilution, 18 hours at 35° C.
Outline: as §1

Streptococcus sp. = details: broth dilution, 18 hours at 35° C.
Outline: as §1

[1] = Enterococcus faecalis (ATCC 29212)
[2] = Enterococcus faecalis (GC 4553)
[3] = Enterococcus faecalis (GC 4554)

MIC Coagulase Negative Staphylococcus (GC 4547) (Staphylococcus sp.): <0.5 to 1 µg/mL
MIC Coagulase Negative Staphylococcus (GC 4548) (Staphylococcus sp.): 0.25-0.25 μg/mL
MIC Coagulase Negative Staphylococcus (GC 4551) (Staphylococcus sp.): <0.5 to 1 µg/mL
MIC Coagulase Negative Staphylococcus (GC 6257) (Staphylococcus sp.): 0.25-0.25 μg/mL
MIC Staphylococcus aureus (ATCC 29213) (Staphylococcus sp.): <0.5 to 1 µg/mL
MIC Staphylococcus aureus (GC 1131) (Staphylococcus sp.): <0.5 to 1 µg/mL
MIC Staphylococcus aureus (GC 3051) (Staphylococcus sp.): <0.5 to 1 µg/mL
MIC Staphylococcus aureus (GC 3053) (Staphylococcus sp.): 1 µg/mL (≈ 0.677 µM)
MIC Staphylococcus aureus (GC 4541) (Staphylococcus sp.): <0.5 to 1 µg/mL
MIC Staphylococcus aureus (GC 4542) (Staphylococcus sp.): <0.5 to 1 µg/mL
MIC Staphylococcus aureus (GC 4544) (Staphylococcus sp.): <0.5 to 1 µg/mL
MIC Staphylococcus aureus (GC 4545) (Staphylococcus sp.): <0.5 to 1 µg/mL
MIC Staphylococcus aureus-SMITH (GC 4543) (Staphylococcus sp.): <0.5 to 1 µg/mL
MIC Staphylococcus aureus (GC 1131) (Staphylococcus sp.; inoculum 5×10^5 CFU/mL, strain GC 1131): <0.5 to 1 µg/mL
MIC Staphylococcus aureus (ATCC 29213) (Staphylococcus sp.; strain ATCC 29213): <0.5 to 1 µg/mL
MIC Staphylococcus aureus (GC 3051) (Staphylococcus sp.; strain GC 3051): <0.5 to 1 µg/mL
MIC Staphylococcus aureus (GC 3053) (Staphylococcus sp.; strain GC 3053): 1 µg/mL (≈ 0.677 µM)
MIC Staphylococcus aureus (GC 4541) (Staphylococcus sp.; strain GC 4541): <0.5 to 1 µg/mL
MIC Staphylococcus aureus (GC 4542) (Staphylococcus sp.; strain GC 4542): <0.5 to 1 µg/mL
MIC Staphylococcus aureus (GC 4544) (Staphylococcus sp.; strain GC 4544): <0.5 to 1 µg/mL
MIC Staphylococcus aureus (GC 4545) (Staphylococcus sp.; strain GC 4545): <0.5 to 1 µg/mL
MIC Coagulase Negative Staphylococcus (GC 4547) (Staphylococcus sp.; strain GC 4547): <0.5 to 1 µg/mL
MIC Coagulase Negative Staphylococcus (GC 4548) (Staphylococcus sp.; strain GC 4548): 0.25-0.25 μg/mL
MIC Coagulase Negative Staphylococcus (GC 4551) (Staphylococcus sp.; strain GC 4551): <0.5 to 1 µg/mL
MIC Coagulase Negative Staphylococcus (GC 6257) (Staphylococcus sp.; strain GC 6257): 0.25-0.25 μg/mL
MIC Staphylococcus aureus-SMITH (GC 4543) (Staphylococcus sp.; strain SMITH GC 4543): <0.5 to 1 µg/mL
MIC Escherichia coli (ATCC 25922) (Escherichia coli; strain ATCC 25922): 16 to 32 µg/mL
MIC Escherichia coli (GC 4559) (Escherichia coli; strain GC 4559): 16 µg/mL (≈ 10.8 µM)
MIC Escherichia coli (GC 4560) (Escherichia coli; strain GC 4560): 1 µg/mL (≈ 0.677 µM)
MIC Enterococcus avium (GC 4558) (Enterococcus sp.; Enterococcus avium (GC 4558)): 1 to 2 µg/mL
MIC Enterococcus faecalis (ATCC 29212) (Enterococcus sp.; [1]): 1 to 2 µg/mL
MIC Enterococcus faecalis (GC 2242) (Enterococcus sp.; Enterococcus faecalis (GC 2242)): <0.5 to 2 µg/mL
MIC Enterococcus faecalis (GC 2691) (Enterococcus sp.; Enterococcus faecalis (GC 2691)): 1 to 2 µg/mL
MIC Enterococcus faecalis (GC 3059) (Enterococcus sp.; Enterococcus faecalis (GC 3059)): 1 to 2 µg/mL
MIC Enterococcus faecalis (GC 4552) (Enterococcus sp.; Enterococcus faecalis (GC 4552)): 1 to 2 µg/mL
MIC Enterococcus faecalis (GC 4553) (Enterococcus sp.; [2]): 1 to 2 µg/mL
MIC Enterococcus faecalis (GC 4554) (Enterococcus sp.; [3]): 1 to 2 µg/mL
MIC Enterococcus faecalis (GC 6189) (Enterococcus sp.; Enterococcus faecalis (GC 6189)): 1 to 2 µg/mL
MIC Enterococcus faecium (GC 2243) (Enterococcus sp.; Enterococcus faecium (GC 2243)): 1 µg/mL (≈ 0.677 µM)
MIC Enterococcus faecium (GC 4556) (Enterococcus sp.; Enterococcus faecium (GC 4556)): <0.5 to 1 µg/mL
MIC Enterococcus faecium (GC 4557) (Enterococcus sp.; Enterococcus faecium (GC 4557)): <0.5 to 2 µg/mL
MIC Enterococcus faecalis (ATCC 29212) (Enterococcus sp.; strain ATCC 29212): 1 to 2 µg/mL
MIC Enterococcus faecalis (GC 2242) (Enterococcus sp.; strain GC 2242): <0.5 to 2 µg/mL
MIC Enterococcus faecium (GC 2243) (Enterococcus sp.; strain GC 2243): 1 µg/mL (≈ 0.677 µM)
MIC Enterococcus faecalis (GC 2691) (Enterococcus sp.; strain GC 2691): 1 to 2 µg/mL
MIC Enterococcus faecalis (GC 3059) (Enterococcus sp.; strain GC 3059): 1 to 2 µg/mL
MIC Enterococcus faecalis (GC 4552) (Enterococcus sp.; strain GC 4552): 1 to 2 µg/mL
MIC Enterococcus faecalis (GC 4553) (Enterococcus sp.; strain GC 4553): 1 to 2 µg/mL
MIC Enterococcus faecalis (GC 4554) (Enterococcus sp.; strain GC 4554): 1 to 2 µg/mL
MIC Enterococcus faecium (GC 4556) (Enterococcus sp.; strain GC 4556): <0.5 to 1 µg/mL
MIC Enterococcus faecium (GC 4557) (Enterococcus sp.; strain GC 4557): <0.5 to 2 µg/mL
MIC Enterococcus avium (GC 4558) (Enterococcus sp.; strain GC 4558): 1 to 2 µg/mL
MIC Enterococcus faecalis (GC 6189) (Enterococcus sp.; strain GC 6189): 1 to 2 µg/mL
MIC Streptococcus agalactiae (GC 4564) (Streptococcus sp.; Streptococcus agalactiae (GC 4564)): <0.06 µg/mL
MIC Streptococcus pneumoniae (ATCC 6301) (Streptococcus sp.; Streptococcus pneumoniae (ATCC 6301)): <0.06 µg/mL
MIC Streptococcus pneumoniae (GC 1894) (Streptococcus sp.; Streptococcus pneumoniae (GC 1894)): <0.06 µg/mL
MIC Streptococcus pneumoniae (GC 4565) (Streptococcus sp.; Streptococcus pneumoniae (GC 4565)): <0.06 µg/mL
MIC Streptococcus pyogenes (GC 4563) (Streptococcus sp.; Streptococcus pyogenes (GC 4563)): <0.06 µg/mL
MIC Streptococcus pneumoniae (ATCC 6301) (Streptococcus sp.; strain ATCC 6301): <0.06 µg/mL
MIC Streptococcus pneumoniae (GC 1894) (Streptococcus sp.; strain GC 1894): <0.06 µg/mL
MIC Streptococcus pyogenes (GC 4563) (Streptococcus sp.; strain GC 4563): <0.06 µg/mL
MIC Streptococcus agalactiae (GC 4564) (Streptococcus sp.; strain GC 4564): <0.06 µg/mL
MIC Streptococcus pneumoniae (GC 4565) (Streptococcus sp.; strain GC 4565): <0.06 µg/mL
Compound: CC(c1ccccc1)C1NC(=O)CNC(=O)C(CO)NC(=O)C(C(O)C2CNC(=N)N2C2OC(CO)C(O)C(O)C2O)NC(=O)C(C(O)C2CNC(=N)N2)NC(=O)C(Cc2ccc(OC3OC(CO)C(OC4OC5COC(Cc6ccc(Br)cc6)OC5C(O)C4O)C(O)C3O)cc2)NC1=O (stereo not drawn) [Example 118, Cyclo[glycyl-β-methylphenylalanyl-O-[4-O-[4,6-O-(4-bromophenethylidene)hexopyranosyl]-hexopyranosyl]tyrosyl-3-(2-iminoimidazolidin-4-yl)seryl-3-(3-hexopyranosyl-2-iminoimidazolidin-4-yl)serylseryl]]

MIC Coagulase Negative Staphylococcus (GC 4547) (Staphylococcus sp.): 8 µg/mL (≈ 5.77 µM)
MIC Coagulase Negative Staphylococcus (GC 4548) (Staphylococcus sp.): 8 µg/mL (≈ 5.77 µM)
MIC Coagulase Negative Staphylococcus (GC 4549) (Staphylococcus sp.): 4 µg/mL (≈ 2.89 µM)
MIC Coagulase Negative Staphylococcus (GC 4551) (Staphylococcus sp.): 8 µg/mL (≈ 5.77 µM)
MIC Staphylococcus aureus (ATCC 29213) (Staphylococcus sp.): 16 µg/mL (≈ 11.5 µM)
MIC Staphylococcus aureus (GC 1131) (Staphylococcus sp.): 32 µg/mL (≈ 23.1 µM)
MIC Staphylococcus aureus (GC 4541) (Staphylococcus sp.): 16 µg/mL (≈ 11.5 µM)
MIC Staphylococcus aureus (GC 4542) (Staphylococcus sp.): 16 µg/mL (≈ 11.5 µM)
MIC Staphylococcus aureus (GC 4544) (Staphylococcus sp.): 8 µg/mL (≈ 5.77 µM)
MIC Staphylococcus aureus (GC 4545) (Staphylococcus sp.): 16 µg/mL (≈ 11.5 µM)
MIC Staphylococcus aureus-SMITH (GC 4543) (Staphylococcus sp.): 8 µg/mL (≈ 5.77 µM)
MIC Staphylococcus aureus (ATCC 29213) (Staphylococcus sp.; strain ATCC 29213): 16 µg/mL (≈ 11.5 µM)
MIC Staphylococcus aureus (GC 1131) (Staphylococcus sp.; strain GC 1131): 32 µg/mL (≈ 23.1 µM)
MIC Staphylococcus aureus (GC 4541) (Staphylococcus sp.; strain GC 4541): 16 µg/mL (≈ 11.5 µM)
MIC Staphylococcus aureus (GC 4542) (Staphylococcus sp.; strain GC 4542): 16 µg/mL (≈ 11.5 µM)
MIC Staphylococcus aureus (GC 4544) (Staphylococcus sp.; strain GC 4544): 8 µg/mL (≈ 5.77 µM)
MIC Staphylococcus aureus (GC 4545) (Staphylococcus sp.; strain GC 4545): 16 µg/mL (≈ 11.5 µM)
MIC Coagulase Negative Staphylococcus (GC 4547) (Staphylococcus sp.; strain GC 4547): 8 µg/mL (≈ 5.77 µM)
MIC Coagulase Negative Staphylococcus (GC 4548) (Staphylococcus sp.; strain GC 4548): 8 µg/mL (≈ 5.77 µM)
MIC Coagulase Negative Staphylococcus (GC 4549) (Staphylococcus sp.; strain GC 4549): 4 µg/mL (≈ 2.89 µM)
MIC Coagulase Negative Staphylococcus (GC 4551) (Staphylococcus sp.; strain GC 4551): 8 µg/mL (≈ 5.77 µM)
MIC Staphylococcus aureus-SMITH (GC 4543) (Staphylococcus sp.; strain SMITH GC 4543): 8 µg/mL (≈ 5.77 µM)
MIC Escherichia coli (ATCC 25922) (Escherichia coli; Escherichia coli (ATCC 25922)): >64 µg/mL
MIC Escherichia coli (GC 4559) (Escherichia coli; Escherichia coli (GC 4559)): >64 µg/mL
MIC Escherichia coli (GC 4560) (Escherichia coli; Escherichia coli (GC 4560)): 4 µg/mL (≈ 2.89 µM)
MIC Enterococcus avium (GC 4558) (Enterococcus sp.; Enterococcus avium (GC 4558)): 64 µg/mL (≈ 46.2 µM)
MIC Enterococcus faecalis (ATCC 29212) (Enterococcus sp.; [1]): 64 µg/mL (≈ 46.2 µM)
MIC Enterococcus faecalis (GC 4553) (Enterococcus sp.; [2]): >64 µg/mL
MIC Enterococcus faecalis (GC 4554) (Enterococcus sp.; [3]): >64 µg/mL
MIC Enterococcus faecium (GC 2243) (Enterococcus sp.; Enterococcus faecium (GC 2243)): >64 µg/mL
MIC Enterococcus faecium (GC 4556) (Enterococcus sp.; Enterococcus faecium (GC 4556)): 64 µg/mL (≈ 46.2 µM)
MIC Enterococcus faecium (GC 4557) (Enterococcus sp.; Enterococcus faecium (GC 4557)): 8 µg/mL (≈ 5.77 µM)
MIC Enterococcus faecalis (ATCC 29212) (Enterococcus sp.; strain ATCC 29212): 64 µg/mL (≈ 46.2 µM)
MIC Enterococcus faecalis (GC 2242) (Enterococcus sp.; strain GC 2242): 64 µg/mL (≈ 46.2 µM)
MIC Enterococcus faecium (GC 2243) (Enterococcus sp.; strain GC 2243): >64 µg/mL
MIC Enterococcus faecalis (GC 4552) (Enterococcus sp.; strain GC 4552): >64 µg/mL
MIC Enterococcus faecalis (GC 4553) (Enterococcus sp.; strain GC 4553): >64 µg/mL
MIC Enterococcus faecalis (GC 4554) (Enterococcus sp.; strain GC 4554): >64 µg/mL
MIC Enterococcus faecium (GC 4556) (Enterococcus sp.; strain GC 4556): 64 µg/mL (≈ 46.2 µM)
MIC Enterococcus faecium (GC 4557) (Enterococcus sp.; strain GC 4557): 8 µg/mL (≈ 5.77 µM)
MIC Enterococcus avium (GC 4558) (Enterococcus sp.; strain GC 4558): 64 µg/mL (≈ 46.2 µM)
MIC Streptococcus agalactiae (GC 4564) (Streptococcus sp.; strain GC 4564): 4 µg/mL (≈ 2.89 µM)
MIC Streptococcus pyogenes (ID-3187) (Streptococcus sp.; strain ID-3187): 4 µg/mL (≈ 2.89 µM)
Compound: CC(C)CC(=O)OC1C(OC2C(CO)OC(Oc3ccc(CC4NC(=O)C(C(C)c5cccs5)NC(=O)CNC(=O)C(CO)NC(=O)C(C(O)C5CNC(=N)N5C5OC(CO)C(O)C(O)C5O)NC(=O)C(C(O)C5CNC(=N)N5)NC4=O)cc3)C(O)C2O)OC(CO)C(O)C1O (stereo not drawn) [Example 265a, Cyclo[3-(2-thienyl)-2-aminobutanoyl-O-[4-O-[2-O-(3-methylbutanoyl)hexopyranosyl]hexopyranosyl]tyrosyl-3-(2-iminoimidazolidin-4-yl)seryl-3-(3-hexopyranosyl-2-iminoimidazolidin-4-yl)serylserylglycyl]]
MIC Staphylococcus haemolyticus (GC 4546) (Staphylococcus sp.): 8 µg/mL (≈ 5.77 µM)
MIC Staphylococcus haemolyticus (GC 4546) (Staphylococcus sp.; strain GC 4546): 8 µg/mL (≈ 5.77 µM)
